# Columns and labels:
# [1] = molecular target: T1, Beta-mannosidase (Homo sapiens) (UniProt O00462); assay: Percent inhibition of human beta-mannosidase at 1000 uM
# T1 sequence (whole entry): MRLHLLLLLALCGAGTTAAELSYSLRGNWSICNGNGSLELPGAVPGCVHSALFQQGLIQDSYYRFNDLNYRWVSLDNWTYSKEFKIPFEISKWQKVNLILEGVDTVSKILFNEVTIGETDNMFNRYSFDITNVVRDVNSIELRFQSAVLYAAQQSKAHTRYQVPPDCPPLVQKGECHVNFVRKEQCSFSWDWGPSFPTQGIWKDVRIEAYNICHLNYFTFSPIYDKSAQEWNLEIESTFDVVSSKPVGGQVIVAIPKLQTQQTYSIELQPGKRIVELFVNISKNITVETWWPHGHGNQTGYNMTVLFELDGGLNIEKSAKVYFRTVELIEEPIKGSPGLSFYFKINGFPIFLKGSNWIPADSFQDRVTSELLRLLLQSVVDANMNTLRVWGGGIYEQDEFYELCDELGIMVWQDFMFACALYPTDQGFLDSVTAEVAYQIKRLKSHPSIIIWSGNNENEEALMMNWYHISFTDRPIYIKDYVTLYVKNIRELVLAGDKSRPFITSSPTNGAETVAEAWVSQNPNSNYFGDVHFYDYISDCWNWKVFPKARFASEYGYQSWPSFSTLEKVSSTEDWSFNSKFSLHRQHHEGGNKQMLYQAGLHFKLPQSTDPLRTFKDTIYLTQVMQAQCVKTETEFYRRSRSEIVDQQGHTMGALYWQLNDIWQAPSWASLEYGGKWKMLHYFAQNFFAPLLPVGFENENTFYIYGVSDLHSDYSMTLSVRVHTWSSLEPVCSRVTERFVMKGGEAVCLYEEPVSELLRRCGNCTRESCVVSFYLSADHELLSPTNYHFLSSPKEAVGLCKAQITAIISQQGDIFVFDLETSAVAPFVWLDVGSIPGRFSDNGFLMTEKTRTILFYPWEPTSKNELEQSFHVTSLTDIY
# [2] = molecular target: T2, Cytosolic beta-glucosidase (Homo sapiens) (UniProt Q9H227); details: 1000 uM
# T2 sequence (whole entry): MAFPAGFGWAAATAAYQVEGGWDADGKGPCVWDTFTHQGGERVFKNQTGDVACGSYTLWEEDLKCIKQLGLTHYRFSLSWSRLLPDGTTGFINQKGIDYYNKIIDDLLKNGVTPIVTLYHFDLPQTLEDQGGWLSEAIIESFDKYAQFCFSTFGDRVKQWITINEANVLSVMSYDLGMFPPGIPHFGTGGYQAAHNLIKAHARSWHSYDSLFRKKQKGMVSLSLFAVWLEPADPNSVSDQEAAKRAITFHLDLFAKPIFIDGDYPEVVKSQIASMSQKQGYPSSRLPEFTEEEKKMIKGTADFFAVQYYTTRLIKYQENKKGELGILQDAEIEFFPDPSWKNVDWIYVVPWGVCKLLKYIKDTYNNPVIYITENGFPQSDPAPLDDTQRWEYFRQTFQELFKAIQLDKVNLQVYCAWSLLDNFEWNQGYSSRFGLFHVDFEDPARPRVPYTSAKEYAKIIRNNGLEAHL
# [3] = molecular target: Sucrase-isomaltase, intestinal (Rattus norvegicus) (UniProt P23739); details: 1000 uM
# Sucrase-isomaltase, intestinal (Rattus norvegicus), sequence (P23739 1-1013 limits assumed): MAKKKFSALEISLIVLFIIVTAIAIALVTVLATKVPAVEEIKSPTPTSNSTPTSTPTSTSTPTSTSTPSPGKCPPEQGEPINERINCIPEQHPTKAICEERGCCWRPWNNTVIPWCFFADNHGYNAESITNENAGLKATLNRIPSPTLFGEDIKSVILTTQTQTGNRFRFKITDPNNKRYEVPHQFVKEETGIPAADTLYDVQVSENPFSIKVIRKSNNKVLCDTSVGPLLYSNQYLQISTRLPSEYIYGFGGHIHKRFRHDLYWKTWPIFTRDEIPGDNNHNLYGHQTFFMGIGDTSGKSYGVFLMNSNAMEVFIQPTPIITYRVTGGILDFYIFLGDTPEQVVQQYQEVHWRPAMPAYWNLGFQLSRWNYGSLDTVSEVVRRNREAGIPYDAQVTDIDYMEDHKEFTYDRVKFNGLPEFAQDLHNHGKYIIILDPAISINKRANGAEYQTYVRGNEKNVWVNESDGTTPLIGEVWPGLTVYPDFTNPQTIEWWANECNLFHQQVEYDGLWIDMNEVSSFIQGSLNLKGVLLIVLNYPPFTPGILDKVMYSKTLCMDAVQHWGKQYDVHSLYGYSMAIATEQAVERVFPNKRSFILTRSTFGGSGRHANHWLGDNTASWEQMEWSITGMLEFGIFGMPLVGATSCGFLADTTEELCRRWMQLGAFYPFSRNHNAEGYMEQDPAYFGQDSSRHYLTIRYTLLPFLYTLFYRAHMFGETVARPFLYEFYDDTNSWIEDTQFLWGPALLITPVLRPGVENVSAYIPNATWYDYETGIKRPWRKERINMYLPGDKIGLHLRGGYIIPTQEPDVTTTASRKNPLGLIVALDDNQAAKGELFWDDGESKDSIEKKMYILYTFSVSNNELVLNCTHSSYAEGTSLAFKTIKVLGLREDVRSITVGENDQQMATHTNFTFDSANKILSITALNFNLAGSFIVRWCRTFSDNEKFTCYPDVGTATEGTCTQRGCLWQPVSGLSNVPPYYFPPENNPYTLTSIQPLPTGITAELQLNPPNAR
# Sucrase-isomaltase, intestinal (Rattus norvegicus), sequence (P23739 1014-1841 limits assumed): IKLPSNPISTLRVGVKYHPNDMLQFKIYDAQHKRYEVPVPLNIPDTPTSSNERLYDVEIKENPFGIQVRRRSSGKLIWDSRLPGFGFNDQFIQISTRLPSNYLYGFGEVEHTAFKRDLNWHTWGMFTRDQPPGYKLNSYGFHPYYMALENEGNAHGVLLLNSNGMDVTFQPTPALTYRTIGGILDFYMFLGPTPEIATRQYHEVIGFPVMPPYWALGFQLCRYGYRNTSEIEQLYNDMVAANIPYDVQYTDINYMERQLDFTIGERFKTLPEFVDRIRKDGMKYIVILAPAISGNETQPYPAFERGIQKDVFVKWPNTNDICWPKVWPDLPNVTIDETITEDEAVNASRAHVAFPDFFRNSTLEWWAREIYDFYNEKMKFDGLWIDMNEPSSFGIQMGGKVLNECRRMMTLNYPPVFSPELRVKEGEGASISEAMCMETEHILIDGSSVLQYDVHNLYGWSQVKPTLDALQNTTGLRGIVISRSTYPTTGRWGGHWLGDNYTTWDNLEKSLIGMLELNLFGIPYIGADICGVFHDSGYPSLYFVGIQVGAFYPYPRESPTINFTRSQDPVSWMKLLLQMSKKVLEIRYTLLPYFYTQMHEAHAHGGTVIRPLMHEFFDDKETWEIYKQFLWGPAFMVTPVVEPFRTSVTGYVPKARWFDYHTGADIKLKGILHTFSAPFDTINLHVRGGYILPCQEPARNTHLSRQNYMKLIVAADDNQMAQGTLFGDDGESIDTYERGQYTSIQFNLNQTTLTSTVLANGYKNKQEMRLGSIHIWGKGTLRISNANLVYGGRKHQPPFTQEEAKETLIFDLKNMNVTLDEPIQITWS
# [4] = molecular target: T3, Beta-galactosidase (Rattus norvegicus) (UniProt D3ZUM4); assay: Percent inhibition of beta-galactosidase of rat epididymis at 1000 uM
# T3 sequence (whole entry): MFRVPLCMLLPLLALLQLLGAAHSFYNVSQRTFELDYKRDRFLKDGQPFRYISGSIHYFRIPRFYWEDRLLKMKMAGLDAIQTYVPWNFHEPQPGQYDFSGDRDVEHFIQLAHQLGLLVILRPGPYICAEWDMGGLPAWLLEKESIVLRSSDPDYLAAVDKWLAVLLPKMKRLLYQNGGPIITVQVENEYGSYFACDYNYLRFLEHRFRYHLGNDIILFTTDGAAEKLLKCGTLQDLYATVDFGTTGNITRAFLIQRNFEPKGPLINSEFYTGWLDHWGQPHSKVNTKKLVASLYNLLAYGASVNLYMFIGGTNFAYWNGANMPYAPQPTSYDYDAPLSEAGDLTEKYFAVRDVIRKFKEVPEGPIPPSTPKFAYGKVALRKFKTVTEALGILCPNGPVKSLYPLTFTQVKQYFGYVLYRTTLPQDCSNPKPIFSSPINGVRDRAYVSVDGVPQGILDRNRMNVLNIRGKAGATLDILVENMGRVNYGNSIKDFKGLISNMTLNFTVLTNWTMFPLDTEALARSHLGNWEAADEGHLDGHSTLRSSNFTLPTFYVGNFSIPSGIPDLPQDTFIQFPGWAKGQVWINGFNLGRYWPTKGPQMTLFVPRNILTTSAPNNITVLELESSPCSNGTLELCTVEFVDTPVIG
# [5] = molecular target: T4, Alpha-galactosidase A (Homo sapiens) (UniProt P06280); details: 1000 uM
# T4 sequence (whole entry): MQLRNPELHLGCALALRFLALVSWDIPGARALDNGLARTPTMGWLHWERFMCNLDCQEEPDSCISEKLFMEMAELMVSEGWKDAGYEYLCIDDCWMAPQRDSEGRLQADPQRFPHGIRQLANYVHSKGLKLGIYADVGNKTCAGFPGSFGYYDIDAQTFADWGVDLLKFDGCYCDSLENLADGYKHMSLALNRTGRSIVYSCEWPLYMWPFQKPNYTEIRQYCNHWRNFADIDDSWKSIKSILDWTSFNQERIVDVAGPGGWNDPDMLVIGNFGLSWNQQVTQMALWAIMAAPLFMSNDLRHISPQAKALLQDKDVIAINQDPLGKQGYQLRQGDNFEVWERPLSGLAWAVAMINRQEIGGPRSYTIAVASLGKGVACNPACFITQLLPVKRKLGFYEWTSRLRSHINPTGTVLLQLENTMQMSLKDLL
# [6] = molecular target: T5, Tissue alpha-L-fucosidase (Bos taurus) (UniProt Q2KIM0); details: 1000 uM
# T5 sequence (whole entry): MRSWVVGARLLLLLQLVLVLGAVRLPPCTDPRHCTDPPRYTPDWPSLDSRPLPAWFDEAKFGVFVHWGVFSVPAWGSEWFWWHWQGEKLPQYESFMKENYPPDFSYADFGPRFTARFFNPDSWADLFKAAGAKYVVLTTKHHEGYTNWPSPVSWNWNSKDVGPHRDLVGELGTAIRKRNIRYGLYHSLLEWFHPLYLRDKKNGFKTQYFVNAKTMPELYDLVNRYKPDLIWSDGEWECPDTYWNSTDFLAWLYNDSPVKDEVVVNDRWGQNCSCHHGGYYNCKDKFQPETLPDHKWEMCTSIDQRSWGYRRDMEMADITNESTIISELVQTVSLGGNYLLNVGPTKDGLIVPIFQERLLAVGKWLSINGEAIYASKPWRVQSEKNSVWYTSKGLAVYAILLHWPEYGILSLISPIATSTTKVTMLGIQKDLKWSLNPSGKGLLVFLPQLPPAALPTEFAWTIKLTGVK
SMILES,inhibition [1],inhibition [2],inhibition [3],inhibition [4],inhibition [5],inhibition [6]
OC[C@@H]1NC[C@@H](O)[C@H](O)[C@@H]1O,< 50%,< 50%,< 50%,–,–,–
OC[C@@H]1NC[C@H](O)[C@@H](O)[C@@H]1O,< 50%,< 50%,< 50%,< 50%,< 50%,< 50%
OC[C@@H]1NC[C@@H](O)[C@@H](O)[C@@H]1O,< 50%,< 50%,< 50%,< 50%,< 50%,–
OC[C@H]1NC[C@H](O)[C@H](O)[C@H]1O,< 50%,< 50%,< 50%,< 50%,–,< 50%
OC[C@H]1NC[C@H](O)[C@H](O)[C@@H]1O,< 50%,< 50%,< 50%,< 50%,< 50%,< 50%
OC[C@H]1NC[C@@H](O)[C@H](O)[C@H]1O,< 50%,–,< 50%,< 50%,–,< 50%

# Second part, the compound after the results:
inhibition [1],inhibition [2],inhibition [3],inhibition [4],inhibition [5],inhibition [6],SMILES
< 50%,–,–,–,< 50%,–,OC[C@H]1NC[C@H](O)[C@@H](O)[C@@H]1O [DUVOGLUSTAT]
< 50%,< 50%,< 50%,< 50%,< 50%,< 50%,OC[C@@H]1NC[C@@H](O)[C@@H](O)[C@H]1O
< 50%,< 50%,–,< 50%,< 50%,–,OC[C@H]1NC[C@@H](O)[C@@H](O)[C@@H]1O [DEOXYMANNOJIRIMYCIN]
< 50%,< 50%,–,–,< 50%,< 50%,OC[C@@H]1NC[C@@H](O)[C@H](O)[C@H]1O
< 50%,< 50%,< 50%,–,–,< 50%,OC[C@H]1NC[C@H](O)[C@@H](O)[C@H]1O
< 50%,< 50%,< 50%,< 50%,< 50%,< 50%,OC[C@@H]1NC[C@H](O)[C@H](O)[C@H]1O
